From PMC10140010 (Investigational New Drugs, 2023)
“And” between values parts separate entries of the source, which are not always exact repeats. Equal entries are not always repeated. Where two headings read alike, the source gives them in different places.

Key:
INSR = INSR (Homo sapiens, UniProt P06213); experiment: Z'-LYTE kinase selectivity; format: biochemical
TNIK = TNIK (Homo sapiens, UniProt Q9UKE5); experiment: Z'-LYTE kinase selectivity; format: biochemical
PKA = PKA (Homo sapiens, UniProt P17612); experiment: Z'-LYTE kinase selectivity; format: biochemical
JNK1 = JNK1 (Homo sapiens, UniProt P45983); experiment: Z'-LYTE kinase selectivity; format: biochemical
ABL = ABL (Homo sapiens, UniProt P00519); experiment: Z'-LYTE kinase selectivity; format: biochemical
MST4 = MST4 (Homo sapiens, UniProt Q9P289); experiment: Z'-LYTE kinase selectivity; format: biochemical
[1] = tested on: NCI-H3122 (EML4-ALK) xenograft; experiment: NCI-H3122 cell line-derived xenograft model (tumor volume, body weight); format: in vivo, BALB/c nude mice; settings: for Tumor volume, individual animals: in mm³
Procedure: Female BALB/c nude mice (4–6 weeks old) were provided by Shanghai Sipple-Bikai Laboratory Animal Co., Ltd. and Beijing Vital River Laboratory Animal Technology Co., Ltd. The mice were housed in a specific pathogen-free environment under a 12 h light/dark cycle, and had free access to sterile animal feed and water.
PDX and CDX models were used for in vivo studies. Patient-derived tumors tissues were divided into about 30 mm^3 and transplanted into the right dorsal subcutis. Treatment began when the tumor size reached to 200 mm^3. The mice were randomly assignied into the corresponding dosing groups (9 mice in each group). Drugs were deliverd via daily oral for 4 weeks. Tumor size was measured periodically using a digital caliper (Cal Pro, Sylvac, Switzerland), and tumor volume was calculated as 0.5 × length × width^2. For more detailed information, please refer to Supplementary materials. All procedures and protocols of xenograft models were approved by the Institutional Animal Care and Use Committee of WuXi AppTec.
NCI-H3122 cells were re-suspended with 0.9% sodium chloride, and then 6×10^6 cells in 100 μL was inoculated subcutaneously into the right armpit of nude mice to prepare solid tumor models under sterile conditions. […] Groups were gavaged once daily with the base dose of drug for 21 days. The blank control group was given the same volume of vehicle (sterile water) injection according to the same protocol, with the dose volume of 100 μL/10 g.

CaMK2 alpha = CaMK2 alpha (Homo sapiens, UniProt Q9UQM7); experiment: Z'-LYTE kinase selectivity; format: biochemical
JAK2 = JAK2 (Homo sapiens, UniProt O60674); experiment: Z'-LYTE kinase selectivity; format: biochemical
MINK = MINK (Homo sapiens, UniProt Q8N4C8); experiment: Z'-LYTE kinase selectivity; format: biochemical
MINK, sequence (Q8N4C8 whole entry): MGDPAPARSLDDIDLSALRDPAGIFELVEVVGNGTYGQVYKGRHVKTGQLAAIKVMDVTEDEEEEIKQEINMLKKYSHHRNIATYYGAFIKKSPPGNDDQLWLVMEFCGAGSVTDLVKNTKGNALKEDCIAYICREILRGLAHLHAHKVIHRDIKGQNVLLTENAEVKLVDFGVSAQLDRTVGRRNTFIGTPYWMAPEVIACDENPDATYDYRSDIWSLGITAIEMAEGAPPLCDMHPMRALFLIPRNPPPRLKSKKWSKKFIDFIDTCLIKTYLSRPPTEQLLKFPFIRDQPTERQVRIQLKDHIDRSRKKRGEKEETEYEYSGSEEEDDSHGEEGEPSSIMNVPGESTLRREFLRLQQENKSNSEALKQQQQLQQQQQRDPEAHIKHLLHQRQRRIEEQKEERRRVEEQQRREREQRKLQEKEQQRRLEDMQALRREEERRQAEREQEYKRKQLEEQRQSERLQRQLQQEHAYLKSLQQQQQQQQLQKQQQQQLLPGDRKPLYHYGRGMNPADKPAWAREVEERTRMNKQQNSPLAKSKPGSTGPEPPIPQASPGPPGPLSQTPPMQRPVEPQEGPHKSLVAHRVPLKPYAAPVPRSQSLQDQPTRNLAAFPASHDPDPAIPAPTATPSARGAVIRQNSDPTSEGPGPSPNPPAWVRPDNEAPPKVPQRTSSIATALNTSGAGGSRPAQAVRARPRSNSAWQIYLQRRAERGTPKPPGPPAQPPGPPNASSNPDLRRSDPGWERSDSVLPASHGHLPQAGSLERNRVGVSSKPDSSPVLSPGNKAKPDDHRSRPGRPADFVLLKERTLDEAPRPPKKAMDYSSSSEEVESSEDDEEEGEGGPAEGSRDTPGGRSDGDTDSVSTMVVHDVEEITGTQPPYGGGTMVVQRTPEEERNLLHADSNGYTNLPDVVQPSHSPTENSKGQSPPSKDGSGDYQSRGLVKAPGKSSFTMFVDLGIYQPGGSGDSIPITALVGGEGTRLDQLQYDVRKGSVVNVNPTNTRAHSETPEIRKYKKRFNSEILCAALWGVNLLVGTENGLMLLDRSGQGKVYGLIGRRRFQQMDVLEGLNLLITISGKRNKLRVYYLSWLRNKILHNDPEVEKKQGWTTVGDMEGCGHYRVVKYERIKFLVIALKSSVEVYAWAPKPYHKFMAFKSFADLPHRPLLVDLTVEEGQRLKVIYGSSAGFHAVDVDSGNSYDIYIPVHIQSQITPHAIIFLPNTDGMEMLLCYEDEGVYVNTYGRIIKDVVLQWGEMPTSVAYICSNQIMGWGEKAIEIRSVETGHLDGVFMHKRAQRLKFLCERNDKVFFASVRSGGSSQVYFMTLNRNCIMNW

[2] = tested on: NCI-H1975 (EGFR^L858R/T790M) cells; experiment: Cell proliferation (CellTiter-Glo); format: cell-based
Procedure: (§1) Cell proliferation assay was performed using methods reported in the previous article. Cell proliferation was measured using the CellTiter-Glo® (CTG) Luminescent Cell Viability Assay (Promega, WI, USA). Cells were seeded in 96-well plates at 15,000 cells per well in detection medium containing 0.5% fetal bovine serum and placed in an incubator at 37℃ and 5% CO2 overnight. On the following day, iruplinalkib was serially diluted with DMSO, further diluted in assay medium, and added to the designated wells for serial dilution of iruplinalkib to the target gradient concentration.

Ba/F3 cells = experiment: Cell proliferation (CellTiter-Glo); format: cell-based
Procedure: as §1

[3] = tested on: Karpas299 (NPM-ALK) cells; experiment: Cell proliferation (CellTiter-Glo); format: cell-based
Procedure: as §1

[4] = tested on: Ba/F3 (SLC34A2-ROS1) cells; experiment: Cell proliferation (CellTiter-Glo); format: cell-based
Procedure: as §1

[5] = tested on: HCC-78 (SLC34A2-ROS1) cells; experiment: Cell proliferation (CellTiter-Glo); format: cell-based
Procedure: as §1

[6] = tested on: NIH-3T3 (CD74-ROS1) cells; experiment: Cell proliferation (CellTiter-Glo); format: cell-based
Procedure: as §1

[7] = tested on: phosphorylation of ALK, AKT, ERK, STAT3 and STAT5 in NCI-H3122 tumor tissue; experiment: Phosphorylation of downstream signal molecules in tumor tissue of NCI-H3122 xenograft; format: in vivo, BALB/c nude mice; settings: 8 h after administration
Procedure: In general, the cells were exposed to the drug and were harvested for western blot analysis. SDS-PAGE was used to separate the proteins of interest, which were then transferred to a nitrocellulose (NC) filtration membrane and soaked in a blocking solution [5% non-fat dry milk in tris-buffered saline with Tween 20 (TBST)] for 1 h at room temperature. Thereafter, the membrane was probed overnight with primary antibodies at 4℃ and washed three times with TBST. The corresponding secondary antibody diluent was added, incubated at room temperature for 1 h, and washed 3 times with TBST. After adding the enhanced chemiluminescence developer to the NC filtration membrane, it is developed in the imaging system (ChemiDoc™ XRS^+, BIO-RAD). See Supplementary Table 2 for details of the antibodies used.
In order to check how iruplinalkib exerts its anti-tumor effects in vivo, tumor tissue samples were collected at 1 and 8 h after the last dose, and the phosphorylation level of downstream signaling pathways molecules were detected.

MAP4K4 = MAP4K4 (Homo sapiens, UniProt O95819); experiment: Z'-LYTE kinase selectivity; format: biochemical
MAP4K4, sequence (O95819 whole entry): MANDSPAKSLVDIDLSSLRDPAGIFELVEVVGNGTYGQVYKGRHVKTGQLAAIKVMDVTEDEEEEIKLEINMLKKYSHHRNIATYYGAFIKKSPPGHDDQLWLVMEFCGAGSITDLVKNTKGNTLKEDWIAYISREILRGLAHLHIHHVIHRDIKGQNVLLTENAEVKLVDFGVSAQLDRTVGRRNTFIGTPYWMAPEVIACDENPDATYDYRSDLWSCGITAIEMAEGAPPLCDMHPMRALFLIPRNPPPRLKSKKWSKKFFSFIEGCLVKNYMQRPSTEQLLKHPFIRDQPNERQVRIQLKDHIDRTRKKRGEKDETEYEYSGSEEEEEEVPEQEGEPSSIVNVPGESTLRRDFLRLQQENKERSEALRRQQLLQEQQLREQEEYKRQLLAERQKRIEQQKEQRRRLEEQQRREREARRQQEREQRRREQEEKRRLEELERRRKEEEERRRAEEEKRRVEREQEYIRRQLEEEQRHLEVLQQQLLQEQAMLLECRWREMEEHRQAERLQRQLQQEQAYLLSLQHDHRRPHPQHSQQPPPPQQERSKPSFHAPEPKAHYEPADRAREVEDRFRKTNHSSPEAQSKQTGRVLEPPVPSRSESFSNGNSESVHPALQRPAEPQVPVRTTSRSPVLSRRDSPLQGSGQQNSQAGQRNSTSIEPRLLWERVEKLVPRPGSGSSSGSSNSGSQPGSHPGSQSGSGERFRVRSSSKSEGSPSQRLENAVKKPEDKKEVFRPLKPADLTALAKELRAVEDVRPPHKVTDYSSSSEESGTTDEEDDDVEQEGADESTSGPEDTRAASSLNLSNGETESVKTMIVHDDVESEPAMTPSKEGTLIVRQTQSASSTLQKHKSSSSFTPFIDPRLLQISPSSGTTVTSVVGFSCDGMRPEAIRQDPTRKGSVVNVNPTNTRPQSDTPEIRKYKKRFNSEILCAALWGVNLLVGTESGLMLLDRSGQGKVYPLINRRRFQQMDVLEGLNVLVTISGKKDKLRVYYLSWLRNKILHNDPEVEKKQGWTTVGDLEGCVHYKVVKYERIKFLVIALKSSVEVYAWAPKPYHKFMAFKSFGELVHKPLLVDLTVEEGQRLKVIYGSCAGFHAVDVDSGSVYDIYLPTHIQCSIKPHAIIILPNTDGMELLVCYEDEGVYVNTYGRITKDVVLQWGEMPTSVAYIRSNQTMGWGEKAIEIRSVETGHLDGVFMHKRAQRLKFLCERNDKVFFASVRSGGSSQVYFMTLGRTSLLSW

KDR = KDR (Homo sapiens, UniProt P35968); experiment: Z'-LYTE kinase selectivity; format: biochemical
KDR, sequence (P35968 20-1356): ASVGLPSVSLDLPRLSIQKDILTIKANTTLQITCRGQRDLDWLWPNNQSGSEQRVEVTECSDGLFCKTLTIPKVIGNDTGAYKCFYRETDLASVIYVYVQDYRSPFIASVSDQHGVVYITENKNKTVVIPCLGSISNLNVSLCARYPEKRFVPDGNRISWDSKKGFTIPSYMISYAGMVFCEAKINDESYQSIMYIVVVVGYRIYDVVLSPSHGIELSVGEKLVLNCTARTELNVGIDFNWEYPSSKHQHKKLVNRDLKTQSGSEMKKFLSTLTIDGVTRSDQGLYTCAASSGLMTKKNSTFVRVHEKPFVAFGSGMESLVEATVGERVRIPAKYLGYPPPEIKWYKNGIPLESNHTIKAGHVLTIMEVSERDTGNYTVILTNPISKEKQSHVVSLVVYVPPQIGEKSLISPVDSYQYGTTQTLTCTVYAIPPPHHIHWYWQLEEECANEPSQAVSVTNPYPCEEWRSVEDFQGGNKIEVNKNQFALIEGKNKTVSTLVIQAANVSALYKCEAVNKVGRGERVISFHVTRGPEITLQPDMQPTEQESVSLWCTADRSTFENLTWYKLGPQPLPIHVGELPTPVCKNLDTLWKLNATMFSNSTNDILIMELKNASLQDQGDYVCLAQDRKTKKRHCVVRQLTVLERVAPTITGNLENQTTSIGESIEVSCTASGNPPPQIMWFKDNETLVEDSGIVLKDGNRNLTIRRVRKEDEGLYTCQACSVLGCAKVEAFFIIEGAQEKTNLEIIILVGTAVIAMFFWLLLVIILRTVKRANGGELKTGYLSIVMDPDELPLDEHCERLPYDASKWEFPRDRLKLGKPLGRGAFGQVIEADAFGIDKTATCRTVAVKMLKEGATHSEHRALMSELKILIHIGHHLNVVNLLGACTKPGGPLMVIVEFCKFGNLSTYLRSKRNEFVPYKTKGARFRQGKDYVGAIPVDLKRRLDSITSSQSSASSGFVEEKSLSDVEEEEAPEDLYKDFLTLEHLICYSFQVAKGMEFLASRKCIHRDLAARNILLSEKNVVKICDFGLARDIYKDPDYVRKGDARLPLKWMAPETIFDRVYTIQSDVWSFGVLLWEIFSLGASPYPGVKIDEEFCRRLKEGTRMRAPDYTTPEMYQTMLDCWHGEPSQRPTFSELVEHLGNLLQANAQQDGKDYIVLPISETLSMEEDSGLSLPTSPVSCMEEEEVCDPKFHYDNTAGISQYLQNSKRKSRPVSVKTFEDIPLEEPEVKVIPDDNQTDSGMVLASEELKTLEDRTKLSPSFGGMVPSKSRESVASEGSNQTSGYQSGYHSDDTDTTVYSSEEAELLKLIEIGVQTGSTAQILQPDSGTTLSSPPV

DYRK3 = DYRK3 (Homo sapiens, UniProt O43781); experiment: Z'-LYTE kinase selectivity; format: biochemical
GSK3 beta = GSK3 beta (Homo sapiens, UniProt P49841); experiment: Z'-LYTE kinase selectivity; format: biochemical
EPHA2 = EPHA2 (Homo sapiens, UniProt P29317); experiment: Z'-LYTE kinase selectivity; format: biochemical
EPHA2, sequence (P29317 24-976): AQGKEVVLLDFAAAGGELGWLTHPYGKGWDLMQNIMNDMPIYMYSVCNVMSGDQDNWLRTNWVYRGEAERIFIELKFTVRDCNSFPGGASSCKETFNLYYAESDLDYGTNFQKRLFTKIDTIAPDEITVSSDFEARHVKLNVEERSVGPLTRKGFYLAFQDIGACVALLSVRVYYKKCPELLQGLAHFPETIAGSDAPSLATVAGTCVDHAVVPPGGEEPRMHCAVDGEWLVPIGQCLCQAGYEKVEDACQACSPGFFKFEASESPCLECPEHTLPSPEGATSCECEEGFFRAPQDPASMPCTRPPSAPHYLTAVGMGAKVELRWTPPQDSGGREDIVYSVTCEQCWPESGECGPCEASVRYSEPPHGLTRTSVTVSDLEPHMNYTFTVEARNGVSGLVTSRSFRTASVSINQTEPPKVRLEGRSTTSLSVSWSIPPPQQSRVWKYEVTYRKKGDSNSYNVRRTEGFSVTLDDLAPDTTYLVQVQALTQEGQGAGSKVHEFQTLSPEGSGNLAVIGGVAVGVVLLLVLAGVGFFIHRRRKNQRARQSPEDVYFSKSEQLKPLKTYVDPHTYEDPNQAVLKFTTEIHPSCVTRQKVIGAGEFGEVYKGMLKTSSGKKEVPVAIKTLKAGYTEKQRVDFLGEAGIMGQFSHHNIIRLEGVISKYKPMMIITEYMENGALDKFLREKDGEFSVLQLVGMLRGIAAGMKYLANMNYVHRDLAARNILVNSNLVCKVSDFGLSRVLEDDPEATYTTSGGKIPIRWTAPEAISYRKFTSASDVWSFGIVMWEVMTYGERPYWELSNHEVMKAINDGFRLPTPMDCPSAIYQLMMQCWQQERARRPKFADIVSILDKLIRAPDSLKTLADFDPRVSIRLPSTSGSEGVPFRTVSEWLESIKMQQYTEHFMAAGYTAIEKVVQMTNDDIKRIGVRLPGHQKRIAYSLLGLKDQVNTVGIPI

[8] = 2.5mg/kg PO QD×21, day 0 after administration
[9] = 2.5mg/kg PO QD×21, day 3 after administration
[10] = 2.5mg/kg PO QD×21, day 6 after administration
[11] = 2.5mg/kg PO QD×21, day 9 after administration
[12] = 2.5mg/kg PO QD×21, day 13 after administration
[13] = 2.5mg/kg PO QD×21, day 16 after administration
[14] = 2.5mg/kg PO QD×21, day 20 after administration
[15] = 5mg/kg PO QD×21, day 0 after administration
[16] = 5mg/kg PO QD×21, day 3 after administration
[17] = 5mg/kg PO QD×21, day 6 after administration
[18] = 5mg/kg PO QD×21, day 9 after administration
[19] = 5mg/kg PO QD×21, day 13 after administration
[20] = 5mg/kg PO QD×21, day 16 after administration
[21] = 5mg/kg PO QD×21, day 20 after administration

COc1cc(N2CCC3(CCN(C)CC3)CC2)ccc1Nc1ncc(Cl)c(Nc2ccccc2P(C)(C)=O)n1 [Iruplinalkib]
IC50 (INSR): 0.699 ± 0.261 µM | IC50 (TNIK): 3.21 ± 1.54 µM | IC50 (PKA): > 10 µM | IC50 (JNK1): 2.04 ± 1.17 µM | IC50 (ABL): 0.576 ± 0.108 µM | IC50 (MST4): 1.4 ± 0.251 µM | Tumor volume Mean [1, 8]: 176 mm³ | Tumor volume, individual animals [1, 8]: 188 and 164 and 230 and 150 and 236 and 136 and 182 and 147 | Tumor volume Mean [1, 9]: 295 mm³ | Tumor volume, individual animals [1, 9]: 324 and 257 and 368 and 284 and 366 and 229 and 267 and 234 | Tumor volume Mean [1, 10]: 449 mm³ | Tumor volume, individual animals [1, 10]: 431 and 392 and 594 and 476 and 695 and 327 and 410 and 337 and 384 | Tumor volume Mean [1, 11]: 606 mm³ | Tumor volume, individual animals [1, 11]: 596 and 541 and 738 and 570 and 1128 and 398 and 498 and 499 and 486 | Tumor volume Mean [1, 12]: 694 mm³ | Tumor volume, individual animals [1, 12]: 630 and 635 and 849 and 718 and 1127 and 586 and 573 and 580 and 545 | Tumor volume Mean [1, 13]: 887 mm³ | Tumor volume, individual animals [1, 13]: 729 and 821 and 1141 and 926 and 1167 and 805 and 883 and 751 and 758.9 | Tumor volume Mean [1, 14]: 972 mm³ | Tumor volume, individual animals [1, 14]: 760 and 976 and 1087 and 1021 and 1125 and 811 and 1040 and 1032 and 895 | Tumor volume Mean [1, 15]: 177 mm³ | Tumor volume, individual animals [1, 15]: 233 and 239 and 173 and 121 and 155 and 235 | Tumor volume Mean [1, 16]: 260 mm³ | Tumor volume, individual animals [1, 16]: 306 and 299 and 256 and 223 and 292 and 296 | Tumor volume Mean [1, 17]: 371 mm³ | Tumor volume, individual animals [1, 17]: 537 and 487 and 339 and 249 and 357 and 438 | Tumor volume Mean [1, 18]: 430 mm³ | Tumor volume, individual animals [1, 18]: 567 and 541 and 407 and 332 and 403 and 534 | Tumor volume Mean [1, 19]: 531 mm³ | Tumor volume, individual animals [1, 19]: 666 and 699 and 523 and 388 and 515 | Tumor volume Mean [1, 20]: 624 mm³ | Tumor volume, individual animals [1, 20]: 718 and 880 and 646 and 506 and 603 | Tumor volume Mean [1, 21]: 727 mm³ | Tumor volume, individual animals [1, 21]: 811 and 875 and 702 and 717 and 714 | Tumor volume Mean ([1]; 10mg/kg PO QD×21, day 0 after administration): 174 mm³ | Tumor volume Mean ([1]; 10mg/kg PO QD×21, day 3 after administration): 190 mm³ | Tumor volume Mean ([1]; 10mg/kg PO QD×21, day 6 after administration): 204 mm³ | Tumor volume Mean ([1]; 10mg/kg PO QD×21, day 9 after administration): 240 mm³ | Tumor volume Mean ([1]; 10mg/kg PO QD×21, day 13 after administration): 243 mm³ | Tumor volume Mean ([1]; 10mg/kg PO QD×21, day 16 after administration): 218 mm³ | Tumor volume Mean ([1]; 10mg/kg PO QD×21, day 20 after administration): 233 mm³ | IC50 (CaMK2 alpha): 0.939 ± 0.099 µM | IC50 (JAK2): 0.595 ± 0.012 µM | IC50 (MINK): 3.89 ± 1.06 µM | IC50 ([2]; Homo sapiens, NCI-H1975): 0.508 ± 0.096 µM | IC50 (Ba/F3 cells; Mus musculus, BaF3): 2.21 ± 0.094 µM | IC50 [3]: 0.0045 ± 0.0007 µM | IC50 ([4]; Mus musculus, BaF3): 0.00405 µM | IC50 ([5]; Homo sapiens, HCC78): 0.228 µM | IC50 ([6]; Mus musculus, NIH3T3): 0.343 µM | levels of phosphorylation of STAT3 and STAT5 in tumor tissue [7]: decreased | IC50 (MAP4K4): 1.84 ± 0.679 µM | IC50 (KDR; read-out: IC50 KDR): 0.26 ± 0.128 µM | IC50 (DYRK3): 8.01 ± 0.583 µM | IC50 (GSK3 beta): > 10 µM | IC50 (EPHA2): > 10 µM

COc1cc(N2CCC(N3CCN(C)CC3)CC2)ccc1Nc1ncc(Cl)c(Nc2ccccc2P(C)(C)=O)n1 [Brigatinib, reference compound]
IC50 (INSR): 0.626 ± 0.304 µM | IC50 (TNIK): 2.37 ± 1.33 µM | IC50 (PKA): > 10 µM | IC50 (JNK1): 1.52 ± 0.733 µM | IC50 (ABL): 0.596 ± 0.052 µM | IC50 (MST4): 1.08 ± 0.502 µM | Tumor volume Mean [1, 15]: 174 mm³ | Tumor volume, individual animals [1, 15]: 116 and 221 and 152 and 134 and 154 and 194 and 207 and 229 | Tumor volume Mean [1, 16]: 252 mm³ | Tumor volume, individual animals [1, 16]: 235 and 195 and 320 and 239 and 193 and 260 and 247 and 262 and 319 | Tumor volume Mean [1, 17]: 352 mm³ | Tumor volume, individual animals [1, 17]: 344 and 246 and 444 and 301 and 248 and 364 and 372 and 370 and 474 | Tumor volume Mean [1, 18]: 461 mm³ | Tumor volume, individual animals [1, 18]: 473 and 337 and 548 and 418 and 289 and 518 and 482 and 535 and 555 | Tumor volume Mean [1, 19]: 502 mm³ | Tumor volume, individual animals [1, 19]: 454 and 241 and 654 and 480 and 315 and 575 and 637 and 495 and 666 | Tumor volume Mean [1, 20]: 547 mm³ | Tumor volume, individual animals [1, 20]: 521 and 320 and 707 and 541 and 350 and 627 and 656 and 464 and 737 | Tumor volume Mean [1, 21]: 612 mm³ | Tumor volume, individual animals [1, 21]: 710 and 414 and 729 and 637 and 412 and 711 and 707 and 501 and 687 | IC50 (CaMK2 alpha): 0.319 ± 0.013 µM | IC50 (JAK2): 0.68 ± 0.047 µM | IC50 (MINK): 4.04 ± 2.16 µM | IC50 [2]: 0.479 ± 0.11 µM | IC50 (Ba/F3 cells; read-out: IC50 BaF3): 2.12 ± 0.023 µM | IC50 [3]: 0.009 µM | IC50 ([4]; read-out: IC50 BaF3 SLC34A2-ROS1): 0.00649 µM | IC50 [5]: 0.425 µM | IC50 [6]: 0.469 µM | levels of phosphorylation of STAT3 and STAT5 in tumor tissue [7]: decreased | IC50 (MAP4K4): 1.68 ± 0.762 µM | IC50 (KDR): 0.178 ± 0.052 µM | IC50 (DYRK3): > 10 µM | IC50 (GSK3 beta): > 10 µM | IC50 (EPHA2): > 10 µM
